Literature values in patent US9585827B2, “Kits comprising a beverage composition and information for use” (The Procter & Gamble Company, priority 2000, dated 2017).

Columns and labels:
[1] = Reussner et al. 1975; phosphate added to low pH powdered beverage compositions
[2] = tested on: dental caries; conditions: Städtler et al. 1996; toothpaste formulations of near-neutral pH

O=P1([O-])OP(=O)([O-])OP(=O)([O-])OP(=O)([O-])OP(=O)([O-])OP(=O)([O-])O1.[Na+].[Na+].[Na+].[Na+].[Na+].[Na+] [sodium hexametaphosphate]
protective effect against molar erosion [1]: did not produce significant protective effects

O=P1([O-])OP(=O)([O-])OP(=O)([O-])O1.[Na+].[Na+].[Na+] [trimetaphosphate]
effect against dental caries [2]: may be effective against dental caries
